Measurements reported in PubChem BioAssay AID743087 (Broad Institute, 2013).
Active and inactive are the calls of the source.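 How the source made its calls: active means IC50 below 100 nM in HeLa cells, the median call across repeat tests; inactive means IC50 above 100 nM in HeLa cells.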

Tests used:
[1] = test system: HeLa viability, CellTiter-Glo luminescence, 48 h; assay: cytotoxicity in TP53-mutant HeLa cells – cell-based, CellTiter-Glo luminescence, dry powder, dose response (AID 743087)
[2] = as above; conditions: HeLa viability, CellTiter-Glo luminescence, 48 h

Compound | IC50 [1] | outcome [2]
C[C@@H]1CC(=O)NN=C1c1ccc(N)c([N+](=O)[O-])c1 | > 1000 nM (inactive) | –
CC(=O)Nc1ccc(C2=NNC(=O)C[C@H]2C)cc1 | 4.78 nM | –
CC1CC(=O)N(c2ccccc2)N=C1c1ccc(Cl)cc1 (configuration not stated) | > 1000 nM (inactive) | –
Cc1nc2ccc(C3=NNC(=O)C[C@H]3C)cc2[nH]1 | > 1000 nM (inactive) | –
C[C@@H]1CC(=O)NN=C1c1ccc(N)c(Br)c1 | > 1000 nM (inactive) | –
CC1CC(=O)NN=C1c1ccc(F)c(F)c1 (configuration not stated) | 64.1 nM | –
C[C@@H]1CC(=O)NN=C1c1ccc(N2CCCCC2=O)cc1 | > 1000 nM (inactive) | –
C[C@@H]1CC(=O)NN=C1c1ccccc1 | 428 nM (inactive) | –
CC(=O)N1CCN(c2ccc(C3=NNC(=O)CC3C)cc2F)CC1 (configuration not stated) | > 1000 nM (inactive) | –
C[C@@H]1CC(=O)NN=C1c1ccc(-c2cncnc2)cc1 | 12.6 nM | –
CC1(C)C(=O)NN=C1c1ccc(N)cc1 | > 1000 nM (inactive) | –
CCN(CC)c1ccc(C2=NNC(=O)C[C@H]2C)cc1[N+](=O)[O-] | > 1000 nM (inactive) | –
CC1C(=O)NN=C1c1ccc([N+](=O)[O-])cc1 (configuration not stated) | > 1000 nM (inactive) | –
CC1CC(=O)NN=C1c1cccs1 (configuration not stated) | > 1000 nM (inactive) | –
CCN1N=C(c2ccc(N(CC)CC)cc2)[C@H](C)CC1=O | > 1000 nM (inactive) | –
C[C@@H]1CC(=O)NN=C1c1ccc(I)cc1 | 7.02 nM | –
CC1(C)C(=O)NN=C1c1ccc(N2CCOCC2)cc1 | > 1000 nM (inactive) | –
CC(=O)Nc1ccc(C2=NNC(=O)C[C@H]2C)cc1C(C)=O | 126 nM (inactive) | –
CCN(CC)c1ccc(C(=O)Nc2ccccc2)cc1[N+](=O)[O-] | > 1000 nM (inactive) | –
CCN(CC)c1ccc(C2=NNC(=O)CC2C)cc1N (configuration not stated) | 232 nM (inactive) | –
C[C@@H]1CC(=O)NN=C1c1ccc(C2CCCCC2)cc1 | 7.59 nM | –

Compound | IC50 [1] | outcome [2]
C[C@@H]1CC(=O)NN=C1c1ccc(N2CCCCC2)cc1 | 3.83 nM | –
C[C@@H]1CC(=O)NN=C1c1ccc(C2=CCCCC2)cc1 | 2.22 nM | –
CC(=O)Nc1ccc(C2=NNC(=O)C[C@H]2C)cc1N | > 1000 nM (inactive) | –
CCN(CC)c1ccc(-c2n[nH]c(=O)cc2C)cc1 | > 1000 nM (inactive) | –
CCN(CC)c1ccc(C2=NNC(=O)C[C@H]2C)cc1 | 3.71 nM | –
CCNc1ccc(C2=NNC(=O)C[C@H]2C)cc1[N+](=O)[O-] | 1.08 nM | –
C[C@@H]1CC(=O)NN=C1c1ccc(N2CCCOC2=O)cc1 | > 1000 nM (inactive) | –
Cc1ccc(CCC(=O)N2CCN(c3ccc(C4=NNC(=O)CC4C)cc3)CC2)cc1 (configuration not stated) | > 1000 nM (inactive) | –
CC(=O)Nc1ccc(-c2n[nH]c(=O)cc2C)cc1 | > 1000 nM (inactive) | –
C[C@H]1CC(=O)NN=C1c1ccc(F)c(F)c1 | > 1000 nM (inactive) | –
CCN(CC)c1ccc(C2=NNC(=O)C2(C)C)cc1 | > 1000 nM (inactive) | –
C/C=C/c1ccc(C2=NNC(=O)C[C@H]2C)cc1 | 8.73 nM | –
C[C@@H]1CC(=O)NN=C1c1ccc(F)c(F)c1 | 22 nM | –
C[C@@H]1CC(=O)NN=C1c1ccc(N2CCOCC2)cc1 | 13 nM | –
C#Cc1cc(C2=NNC(=O)C[C@H]2C)ccc1NC(C)=O | 64.6 nM | –
CC1(C)C(=O)NN=C1c1ccc([N+](=O)[O-])cc1 | > 1000 nM (inactive) | –
CC(=O)Nc1ccc(C2=NNC(=O)C[C@H]2C)cc1[N+](=O)[O-] | 4.78 nM | –
CCN(CC)c1ccc(-c2nc(C(C)C)no2)cc1[N+](=O)[O-] | – | inactive
C[C@@H]1CC(=O)NN=C1c1ccc(N2CCOCC2)cc1 (racemic) | 35.1 nM | –
C[C@H]1CC(=O)NN=C1c1ccc(N2CCOCC2)c(F)c1 | > 1000 nM (inactive) | –
CCN(CC)c1ccc(C2=NNC(=O)CC2C)cc1NCCOCCOCCNC(=O)OC(C)(C)C (configuration not stated) | > 1000 nM (inactive) | –

Compound | IC50 [1] | outcome [2]
C[C@@H]1CC(=O)NN=C1c1ccc(F)cc1 (racemic) | 360 nM (inactive) | –
C[C@@H]1CC(=O)NN=C1c1ccc(N2CCCCS2(=O)=O)cc1 | 478 nM (inactive) | –
O=C1CC(c2ccccc2)=NN1 | > 1000 nM (inactive) | –
C[C@@H]1CC(=O)NN=C1c1ccc(N2CCCC2=O)cc1 | 133 nM (inactive) | –
CC(=O)Nc1ccc(C2=NNC(=O)C[C@H]2C)cc1Br | 21.4 nM | –
CC(=O)Nc1ccc(C2=NNC(=O)CC2C)cc1 (configuration not stated) | > 1000 nM (inactive) | –
Cc1cc(=O)[nH]nc1-c1ccc(N)cc1 | > 1000 nM (inactive) | –
C[C@@H]1CC(=O)NN=C1c1ccc(N2CCN(C)CC2)cc1 | 297 nM (inactive) | –
C[C@@H]1CC(=O)NN=C1c1ccc(Cl)cc1 | 32.6 nM | –
O=C1C[C@H]2CCc3cc(N4CCOCC4)ccc3C2=NN1 (racemic) | > 1000 nM (inactive) | –
CC1CC(=O)NN=C1c1ccc(N2CCN(C(=O)Cc3ccc(Cl)cc3Cl)CC2)cc1 (configuration not stated) | > 1000 nM (inactive) | –
CC1(C)C(=O)NN=C1c1ccc(Cl)cc1 | > 1000 nM (inactive) | –
C[C@@H]1CC(=O)NN=C1c1ccc(N2CCOCC2)c(F)c1 | 1.58 nM | –
C[C@@H]1CC(=O)NN=C1c1ccc(-n2cnnc2)cc1 | > 1000 nM (inactive) | –
CCN(CC)c1ccc(C2=NNC(=O)CC2C)cc1 (configuration not stated) | 8.54 nM | –
CC1CC(=O)NN=C1c1ccc(N2CCOCC2)c(F)c1 (configuration not stated) | 2.73 nM | –
CCCc1ccc(C2=NNC(=O)C[C@H]2C)cc1 | 16.2 nM | –
CCNc1ccc(C2=NNC(=O)C[C@H]2C)cc1 | 71 nM | –
CCN(CC)c1ccc(C2=NNC(=O)CC2C)cc1NC(C)=O (configuration not stated) | > 1000 nM (inactive) | –
C[C@@H]1CC(=O)NN=C1c1ccc([Si](C)(C)C)cc1 | 179 nM (inactive) | –
